Reference: patent US20250034173A1, “PYRIDO[4,3-D]PYRIMIDINE COMPOUNDS” (PFIZER INC., priority 2023, published 2025)

Columns and labels:
[1] = system: H358 (non-small cell lung cancer cell line); experiment: KRAS Cell Titer Glo (CTG) cell proliferation assay, H358; type: cell-based; conditions: Homo sapiens, NCI-H358, 168 h; H358 cells, 7-day CTG, geomean IC50
Outline: (§1)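 Compounds pre-dispensed in 0.1% DMSO before seeding H358 (300 cells/well), SW620 (750) or PANC08.13 (600); 7-day exposure at 37 °C, 5% CO2. Viability by CellTiter-Glo luminescence after 15 min at room temperature. Percent effect normalised to DMSO (0%) and 1 uM trametinib (100%); geomean IC50.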

KRAS Wild Type [2] = target: T1, KRAS Wild Type (Homo sapiens (Human), UniProt P01116); experiment: SPR binding affinity and kinetics, GTPγS-loaded KRAS Wild Type; conditions: GTPγS loaded protein, geomean
T1 sequence (P01116 other isoform, or with tags, fused parts or gaps): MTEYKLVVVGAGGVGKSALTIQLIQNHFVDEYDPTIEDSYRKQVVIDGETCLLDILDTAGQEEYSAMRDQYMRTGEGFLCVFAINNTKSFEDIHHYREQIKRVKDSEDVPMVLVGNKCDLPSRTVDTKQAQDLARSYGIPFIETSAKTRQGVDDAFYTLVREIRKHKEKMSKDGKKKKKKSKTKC
Outline: (§2)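 No additional regeneration is used in these SPR runs, and compound off-rate monitoring lasts at least 3600 seconds.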

KRAS G12C [3] = target: T2, KRAS G12C (Homo sapiens (Human), UniProt P01116, G12C); experiment: SPR binding affinity and kinetics, GTPγS-loaded KRAS G12C; conditions: GTPγS loaded protein, geomean
T2 sequence (P01116 other isoform, or with tags, fused parts or gaps G12C): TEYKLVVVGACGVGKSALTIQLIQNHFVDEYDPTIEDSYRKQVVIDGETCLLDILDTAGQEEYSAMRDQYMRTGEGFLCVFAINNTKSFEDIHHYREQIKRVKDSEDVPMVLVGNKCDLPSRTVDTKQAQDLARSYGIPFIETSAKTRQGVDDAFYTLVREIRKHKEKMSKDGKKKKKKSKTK
Outline: as §2

KRAS G12V [4] = target: T3, KRAS G12V (Homo sapiens (Human), UniProt P01116, G12V); experiment: SPR binding affinity and kinetics, GDP-loaded KRAS G12V; conditions: GDP loaded protein, geomean
T3 sequence (P01116 other isoform, or with tags, fused parts or gaps G12V): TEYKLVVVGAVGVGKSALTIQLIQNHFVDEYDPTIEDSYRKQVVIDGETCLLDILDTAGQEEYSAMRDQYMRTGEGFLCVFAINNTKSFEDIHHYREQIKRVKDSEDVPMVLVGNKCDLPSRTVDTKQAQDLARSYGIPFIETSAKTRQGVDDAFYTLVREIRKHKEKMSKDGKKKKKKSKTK
Source text: (§3) No additional regeneration was used.
(§4) Compound dissociation was monitored for at least 3600 seconds. […] No additional regeneration was used.
(§5) The adequateness of the fit was judged by c2 values and the randomness of residue distribution.

[5] = system: SW620 (colorectal cancer cell line); experiment: KRAS Cell Titer Glo (CTG) cell proliferation assay, SW620; type: cell-based; conditions: Homo sapiens, SW-620, 168 h; SW620 cells, 7-day CTG, geomean IC50
Outline: as §1

KRAS G12D [6] = target: T4, KRAS G12D (Homo sapiens (Human), UniProt P01116, G12D); experiment: SPR binding affinity and kinetics, GDP-loaded KRAS G12D; conditions: GDP loaded protein, geomean
T4 sequence (P01116 other isoform, or with tags, fused parts or gaps G12D): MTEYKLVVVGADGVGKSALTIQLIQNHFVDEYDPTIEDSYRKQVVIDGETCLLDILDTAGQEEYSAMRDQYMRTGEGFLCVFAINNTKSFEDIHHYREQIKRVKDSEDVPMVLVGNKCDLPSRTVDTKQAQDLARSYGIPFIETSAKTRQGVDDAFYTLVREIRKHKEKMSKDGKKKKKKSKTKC
Source text: as §3, §4, §5

KRAS G12C [7] = target: T2, KRAS G12C; experiment: SPR binding affinity and kinetics, GDP-loaded KRAS G12C; conditions: GDP loaded protein, geomean
Source text: as §3, §4, §5

KRAS G12V [8] = target: T3, KRAS G12V; experiment: SPR binding affinity and kinetics, GTPγS-loaded KRAS G12V; conditions: GTPγS loaded protein, geomean
Outline: as §2

NRAS Wild Type = NRAS Wild Type (Homo sapiens (Human), UniProt P01111); experiment: SPR binding affinity and kinetics, GTPγS-loaded NRAS Wild Type; conditions: GTPγS loaded protein, geomean
Sequence of NRAS Wild Type (P01111 2-185): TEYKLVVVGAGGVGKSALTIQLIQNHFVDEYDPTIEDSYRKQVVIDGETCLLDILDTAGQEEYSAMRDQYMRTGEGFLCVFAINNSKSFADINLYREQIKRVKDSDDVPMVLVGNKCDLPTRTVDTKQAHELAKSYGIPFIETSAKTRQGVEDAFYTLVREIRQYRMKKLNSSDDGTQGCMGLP
Source text: as §3, §4, §5

KRAS Wild Type [9] = target: T1, KRAS Wild Type; experiment: SPR binding affinity and kinetics, GDP-loaded KRAS Wild Type; conditions: GDP loaded protein, geomean
Source text: as §3, §4, §5

HRAS Wild Type = HRAS Wild Type (Homo sapiens (Human), UniProt P01112); experiment: SPR binding affinity and kinetics, GTPγS-loaded HRAS Wild Type; conditions: GTPγS loaded protein, geomean
Sequence of HRAS Wild Type (P01112 2-184): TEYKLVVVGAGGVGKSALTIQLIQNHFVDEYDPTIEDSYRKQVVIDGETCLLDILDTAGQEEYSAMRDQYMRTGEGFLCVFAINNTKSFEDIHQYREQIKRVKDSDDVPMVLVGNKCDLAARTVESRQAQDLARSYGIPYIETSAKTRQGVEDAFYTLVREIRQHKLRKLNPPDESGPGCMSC
Source text: as §3, §4, §5

KRAS G12D [10] = target: T4, KRAS G12D; experiment: SPR binding affinity and kinetics, GTPγS-loaded KRAS G12D; conditions: GTPγS loaded protein, geomean
Outline: as §2

[11] = system: PANC08.13 (pancreatic cancer cell line); experiment: KRAS Cell Titer Glo (CTG) cell proliferation assay, PANC08.13; type: cell-based; conditions: Homo sapiens, PANC-08-13, 168 h; PANC08.13 cells, 7-day CTG, geomean IC50
Outline: as §1

| Structure (SMILES) | IC50 [1] [nM] | Kd (KRAS Wild Type [2]) [nM] | Kd (KRAS G12C [3]) [nM] | Kd (KRAS G12V [4]) [nM] | IC50 [5] [nM] | Kd (KRAS G12D [6]) [nM] | Kd (KRAS G12C [7]) [nM] | Kd (KRAS G12V [8]) [nM] | Kd (NRAS Wild Type) [nM] | Kd (KRAS Wild Type [9]) [nM] | Kd (HRAS Wild Type) [nM] | Kd (KRAS G12D [10]) [nM] | IC50 [11] [nM] |
| --- | --- | --- | --- | --- | --- | --- | --- | --- | --- | --- | --- | --- | --- |
| C=C1CN2CCC[C@@]2(COc2nc3c4c(nc(-c5c(C)ccc6[nH]ncc56)c(F)c4n2)OC[C@@H]2COCCCN32)C1 [Example 5, (8aS)-4-fluoro-2-{[(7aS)-2-methylidenetetrahydro-1H-pyrrolizin-7a(5H)-yl]methoxy}-5-(5-methyl-1H-indazol-4-yl)-8a,9,12,13-tetrahydro-8H,11H-7,10-dioxa-1,3,6,13a-tetraazanaphtho[1,8-ab]heptalene] | 2320 | 1450 | 1560 | 2.76 | 2680 | 2.2 | 1.95 | 1430 | – | 5.42 | – | 1240 | 1040 |
| C=C1CN2CCC[C@@]2(COc2nc3c4c(nc(-c5c(Cl)ccc6[nH]ncc56)c(F)c4n2)OC[C@@H]2COCCCN32)C1 [Example 6, (8aS)-5-(5-chloro-1H-indazol-4-yl)-4-fluoro-2-{[(7aS)-2-methylidenetetrahydro-1H-pyrrolizin-7a(5H)-yl]methoxy}-8a,9,12,13-tetrahydro-8H,11H-7,10-dioxa-1,3,6,13a-tetraazanaphtho[1,8-ab]heptalene] | 847 | 546 | 635 | 1.23 | 1320 | 0.956 | 0.894 | 639 | – | 2.51 | – | 467 | 404 |
| C=C1CN2CCC[C@@]2(COc2nc3c4c(nc(-c5c(C(F)F)ccc6[nH]ncc56)c(F)c4n2)OC[C@@H]2COCCCN32)C1 [Example 10, (8aS)-5-[5-(difluoromethyl)-1H-indazol-4-yl]-4-fluoro-2-{[(7aS)-2-methylidenetetrahydro-1H-pyrrolizin-7a(5H)-yl]methoxy}-8a,9,12,13-tetrahydro-8H,11H-7,10-dioxa-1,3,6,13a-tetraazanaphtho[1,8-ab]heptalene] | 4540 | 2880 | 3230 | 3.9 | 9530 | 2.07 | 1.81 | 2820 | – | 8.03 | – | 2550 | 475 |
| C=C1CN2CCC[C@@]2(COc2nc3c4c(nc(-c5c(C(F)(F)F)ccc6[nH]ncc56)c(F)c4n2)OC[C@@H]2COCCCN32)C1 [Example 12, (8aS)-4-fluoro-2-{[(7aS)-2-methylidenetetrahydro-1H-pyrrolizin-7a(5H)-yl]methoxy}-5-[5-(trifluoromethyl)-1H-indazol-4-yl]-8a,9,12,13-tetrahydro-8H,11H-7,10-dioxa-1,3,6,13a-tetraazanaphtho[1,8-ab]heptalene] | 211 | 95 | 84 | 0.106 | 463 | 0.116 | 0.122 | 62 | – | 0.257 | – | 42 | 35 |
| C=C1CN2CCC[C@@]2(COc2nc3c4c(nc(-c5c(C(F)(F)F)c(Cl)cc6[nH]ncc56)c(F)c4n2)OC[C@@H]2COCCCN32)C1 [Example 13, (8aS)-5-[6-chloro-5-(trifluoromethyl)-1H-indazol-4-yl]-4-fluoro-2-{[(7aS)-2-methylidenetetrahydro-1H-pyrrolizin-7a(5H)-yl]methoxy}-8a,9,12,13-tetrahydro-8H,11H-7,10-dioxa-1,3,6,13a-tetraazanaphtho[1,8-ab]heptalene] | 26 | 5 | 4 | 0.072 | 70 | 0.106 | 0.017 | 3 | – | < 0.001 | – | 1 | 7 |
| C/C=C1\CN2CCC[C@@]2(COc2nc3c4c(nc(-c5c6c(cc7[nH]ncc57)CCC[C@H]6C)c(F)c4n2)OC[C@@H]2COCCCN32)C1 [Example 53, (8aS)-2-{[(2Z,7aS)-2-ethylidenetetrahydro-1H-pyrrolizin-7a(5H)-yl]methoxy}-4-fluoro-5-[(5R)-5-methyl-5,6,7,8-tetrahydro-1H-benzo[f]indazol-4-yl]-8a,9,12,13-tetrahydro-8H,11H-7,10-dioxa-1,3,6,13a-tetraazanaphtho[1,8-ab]heptalene] | 8 | 1 | 1 | – | 4 | – | – | 2 | > 10000 | – | > 10000 | 1 | 5 |
| C[C@@H]1CCCc2cc3[nH]ncc3c(-c3nc4c5c(nc(OC[C@@]67CCCN6C/C(=C/F)C7)nc5c3F)N3CCCOC[C@H]3CO4)c21 [Example 55, (8aS)-4-fluoro-2-{[(2E,7aS)-2-(fluoromethylidene)tetrahydro-1H-pyrrolizin-7a(5H)-yl]methoxy}-5-[(5R)-5-methyl-5,6,7,8-tetrahydro-1H-benzo[f]indazol-4-yl]-8a,9,12,13-tetrahydro-8H,11H-7,10-dioxa-1,3,6,13a-tetraazanaphtho[1,8-ab]heptalene] | 24 | 3 | 1 | – | 6 | – | – | 2 | > 10000 | – | > 10000 | 2 | 13 |

Results, then the compound that gave them:

| IC50 [1] [nM] | Kd (KRAS Wild Type [2]) [nM] | Kd (KRAS G12C [3]) [nM] | Kd (KRAS G12V [4]) [nM] | IC50 [5] [nM] | Kd (KRAS G12D [6]) [nM] | Kd (KRAS G12C [7]) [nM] | Kd (KRAS G12V [8]) [nM] | Kd (NRAS Wild Type) [nM] | Kd (KRAS Wild Type [9]) [nM] | Kd (HRAS Wild Type) [nM] | Kd (KRAS G12D [10]) [nM] | IC50 [11] [nM] | Structure (SMILES) |
| --- | --- | --- | --- | --- | --- | --- | --- | --- | --- | --- | --- | --- | --- |
| 73 | 14 | 12 | 0.105 | 83 | 0.048 | 0.031 | 8 | > 10000 | 0.038 | > 10000 | 10 | 7 | Fc1c(-c2c(C3CC3)c(Cl)cc3[nH]ncc23)nc2c3c(nc(OC[C@@]45CCCN4C[C@H](F)C5)nc13)N1CCCOC[C@H]1CO2 [Example 1, (8aS)-5-(6-chloro-5-cyclopropyl-1H-indazol-4-yl)-4-fluoro-2-{[(2R,7aS)-2-fluorotetrahydro-1H-pyrrolizin-7a(5H)-yl]methoxy}-8a,9,12,13-tetrahydro-8H,11H-7,10-dioxa-1,3,6,13a-tetraazanaphtho[1,8-ab]heptalene] |
| > 9990 | > 1000 | > 1000 | > 10000 | > 9990 | > 10000 | > 10000 | > 1000 | – | > 10000 | – | > 1000 | > 9990 | Fc1c(-c2cccc3[nH]ncc23)nc2c3c(nc(OC[C@@]45CCCN4C[C@H](F)C5)nc13)N1CCCOC[C@H]1CO2 [Example 3, (8aS)-4-fluoro-2-{[(2R,7aS)-2-fluorotetrahydro-1H-pyrrolizin-7a(5H)-yl]methoxy}-5-(1H-indazol-4-yl)-8a,9,12,13-tetrahydro-8H,11H-7,10-dioxa-1,3,6,13a-tetraazanaphtho[1,8-ab]heptalene] |
| 534 | 2290 | 2270 | 2.6 | 3380 | 1.36 | 4.29 | 1590 | – | 7.72 | – | 2030 | 299 | Fc1c(-c2c(Cl)c(Cl)cc3[nH]ncc23)nc2c3c(nc(OC[C@@]45CCCN4C[C@H](F)C5)nc13)N1CCCC[C@H]1CO2 [Example 4, (8aS)-5-(5,6-dichloro-1H-indazol-4-yl)-4-fluoro-2-{[(2R,7aS)-2-fluorotetrahydro-1H-pyrrolizin-7a(5H)-yl]methoxy}-8,8a,9,10,11,12-hexahydro-7-oxa-1,3,6,12a-tetraazabenzo[4,5]cyclohepta[1,2,3-de]naphthalene] |
| 136 | 40 | 39 | 0.067 | 315 | 0.024 | 0.051 | 29 | – | 0.091 | – | 19 | 21 | C=C1CN2CCC[C@@]2(COc2nc3c4c(nc(-c5c(Cl)c(Cl)cc6[nH]ncc56)c(F)c4n2)OC[C@@H]2COCCCN32)C1 [Example 11, (8aS)-5-(5,6-dichloro-1H-indazol-4-yl)-4-fluoro-2-{[(7aS)-2-methylidenetetrahydro-1H-pyrrolizin-7a(5H)-yl]methoxy}-8a,9,12,13-tetrahydro-8H,11H-7,10-dioxa-1,3,6,13a-tetraazanaphtho[1,8-ab]heptalene] |
